For data set [1], the target named is HDAC7 (Homo sapiens (Human), UniProt Q8WUI4). Description: HDACs 1-11 enzymatic inhibition by BPS Bioscience.
Description: HDAC assay was performed according to standard Protocols (Fluorgenic HDACs 1-11 assay kit, BPS Bioscience™). […] After 0.5 h, assay developer was added to the samples and the absorbance was read at fluorogenic wavelength. The relative inhibition to HDACs 1, 2, 3, 4, 5, 6, 7, 8, 9, and 11 activities was determined in each sample. […] All of the compounds were dissolved in DMSO. The serial dilution of the compounds was first performed in 100% DMSO with the highest concentration at 1 mM. Each intermediate compound dilution (in 100% DMSO) would then get directly diluted 10× fold into assay buffer for an intermediate dilution of 10% DMSO in HDAC assay buffer and 5 μl of the dilution was added to a 50 μl reaction so that the final concentration of DMSO is 1% in all of the reactions. The enzymatic reactions for the HDAC enzymes were conducted in duplicate at 37° C. for 30 minutes in a 50 μl mixture containing HDAC assay buffer, 5 μg BSA, an HDAC substrate, a HDAC enzyme and a test compound. After enzymatic reactions, 50 μl of 2×HDAC Developer was added to each well for the HDAC enzymes and the plate was incubated at room temperature for an additional 15 minutes. Fluorescence intensity was measured at an excitation of 360 nm and an emission of 460 nm using a Tecan Infinite M1000 microplate reader. HDAC activity assays were performed in duplicate at each concentration. The fluorescent intensity data were analyzed using the computer software, Graphpad Prism. In the absence of the compound, the fluorescent intensity (Ft) in each data set was defined as 100% activity. In the absence of HDAC, the fluorescent intensity (Fb) in each data set was defined as 0% activity. The percent activity in the presence of each compound was calculated according to the following equation: % activity=(F−Fb)/(Ft−Fb), where F=the fluorescent intensity in the presence of the compound. […] The IC50 value was determined by the concentration causing a half-maximal percent activity.
Data set [2] in a line: Saturation solubility. The class given is physicochemical. The settings on record: water, thermodynamic from solid, ddH2O, 25° C., mean ± SD, BDL: Below detection limit. The procedure:
Samples of 5 mg of compounds were added to 5 ml volumetric flasks containing ddH2O and shaken at 100 rpm in an incubator at 25° C. for 90 minutes. The resulting suspension was filtered through a 0.22 μm filter. The concentrations of compounds were determined spectrophotometrically at 256 nm. The saturation solubility of each sample was determined in triplicates and the mean value and standard deviation were reported.

Data set [3] concerns the target HDAC1 (Homo sapiens (Human), UniProt Q13547). Description: HDACs 1, 2, and 3 enzymatic inhibition (fluorogenic kit, 1 h). The class given is biochemical. The settings on record: 37° C. On the procedure: (§1) HDACs assay was performed according to standard Protocols (Fluorgenic HDACs 1, 2, and 3 assay kit, BPS Bioscience™). […] After 1 h, assay developer was added to the samples and the absorbance was read at fluorogenic wavelength. The relative inhibition to HDACs 1, 2, and 3 activities in each sample was determined.

Data set [4] concerns the target T1, HDAC3 (Homo sapiens (Human), UniProt O15379). The data set is described as above. The settings on record: 37° C. The format is biochemical. On the procedure:
as §1

Data set [5] deals with HDAC2 (Homo sapiens (Human), UniProt Q92769). The data set is described as above. The format is biochemical. The conditions noted are these: 37° C. On the procedure: as §1
In data set [6] the target is T1, HDAC3. The data set can be described thus: HDAC3 enzymatic kinetic assay. The class given is biochemical. The settings on record: 2 μM; 20 min, 40 min and 60 min. On the procedure: HDAC3 enzymatic kinetic assay was performed according to standard Protocols (Fluorgenic HDAC3 assay kit, BPS Bioscience™). […] After incubation, assay developer was added to the samples and the absorbance was read at fluorogenic wavelength. The relative inhibition to HDAC3 activity in each sample was determined.

In data set [7] the test system is SW48 cells. The data set can be described thus: Cell apoptosis (sub-G1) by PI flow cytometry. The format is cell-based, human. The conditions noted are these: SW48, 6.25 μM, 72 h. The procedure: (§2) A PI/RNase staining assay (BD Bioscience™) was performed to reveal the presence of cell cycle arrest and apoptotic cells after treatment with GNTbm compounds, Chidamide and Entinostat. […] After treatment cells were harvested, fixed with 80% ethanol for 24 h, washed with 1×PBS and stained with PI/RNase for 15 min at room temperature. The cells were then analyzed using Flow Cytometer within 1 h.

The test system of data set [8] is MDA-MB-231 cells. The data set can be described thus: Cell apoptosis (sub-G1) by PI flow cytometry. The format is cell-based, human. The settings on record: MDA-MB-231, 6.25 μM, 72 h. The procedure:
as §2

The test system of data set [9] is M10 cells. Description: Cell apoptosis (sub-G1) by PI flow cytometry. The class given is cell-based, human. The settings on record: M10, 12.5 μM, 72 h. The procedure:
as §2

Converted amounts (≈) assume the structure as drawn. “Also recorded” adds a separate entry of the source.

T1 sequence (O15379 whole entry): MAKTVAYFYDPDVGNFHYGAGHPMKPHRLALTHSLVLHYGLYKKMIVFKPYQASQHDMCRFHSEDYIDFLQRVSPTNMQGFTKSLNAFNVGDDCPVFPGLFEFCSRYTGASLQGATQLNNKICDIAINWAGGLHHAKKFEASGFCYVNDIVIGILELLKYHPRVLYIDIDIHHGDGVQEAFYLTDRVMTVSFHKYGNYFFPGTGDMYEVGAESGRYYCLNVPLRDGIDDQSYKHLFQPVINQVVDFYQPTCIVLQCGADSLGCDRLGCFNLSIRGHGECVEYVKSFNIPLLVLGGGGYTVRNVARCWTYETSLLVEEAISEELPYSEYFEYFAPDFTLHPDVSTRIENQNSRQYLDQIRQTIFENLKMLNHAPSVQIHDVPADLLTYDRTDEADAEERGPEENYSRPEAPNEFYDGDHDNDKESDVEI
T1 sequence (Q9Y618 395-489 partner): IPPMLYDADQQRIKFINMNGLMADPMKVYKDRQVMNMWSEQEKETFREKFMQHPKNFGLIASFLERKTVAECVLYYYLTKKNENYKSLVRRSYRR
HDAC7, sequence (Q8WUI4 whole entry): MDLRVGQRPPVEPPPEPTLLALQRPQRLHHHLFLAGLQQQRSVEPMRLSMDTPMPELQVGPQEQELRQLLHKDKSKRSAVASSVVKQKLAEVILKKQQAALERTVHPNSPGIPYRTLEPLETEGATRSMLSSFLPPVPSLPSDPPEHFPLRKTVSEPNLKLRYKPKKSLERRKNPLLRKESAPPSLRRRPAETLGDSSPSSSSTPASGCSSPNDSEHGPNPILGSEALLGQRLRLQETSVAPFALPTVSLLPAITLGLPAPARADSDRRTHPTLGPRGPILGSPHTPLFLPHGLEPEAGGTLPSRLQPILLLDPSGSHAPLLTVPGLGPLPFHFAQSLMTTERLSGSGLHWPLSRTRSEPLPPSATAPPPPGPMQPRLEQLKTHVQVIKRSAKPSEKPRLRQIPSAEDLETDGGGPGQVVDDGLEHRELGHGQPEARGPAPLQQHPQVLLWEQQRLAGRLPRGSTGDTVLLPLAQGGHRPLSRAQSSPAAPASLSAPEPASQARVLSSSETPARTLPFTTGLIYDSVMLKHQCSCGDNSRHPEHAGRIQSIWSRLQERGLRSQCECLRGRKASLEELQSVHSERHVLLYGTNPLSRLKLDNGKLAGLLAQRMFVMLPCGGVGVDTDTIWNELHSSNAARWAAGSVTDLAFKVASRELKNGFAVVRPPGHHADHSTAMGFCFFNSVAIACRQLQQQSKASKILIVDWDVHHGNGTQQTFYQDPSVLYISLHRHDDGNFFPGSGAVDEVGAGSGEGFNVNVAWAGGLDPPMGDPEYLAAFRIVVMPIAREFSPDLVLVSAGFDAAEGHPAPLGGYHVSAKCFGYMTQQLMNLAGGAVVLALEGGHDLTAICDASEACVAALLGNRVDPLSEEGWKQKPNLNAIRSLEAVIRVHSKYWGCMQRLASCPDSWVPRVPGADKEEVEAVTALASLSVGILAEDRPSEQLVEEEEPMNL
HDAC2, sequence (Q92769 whole entry): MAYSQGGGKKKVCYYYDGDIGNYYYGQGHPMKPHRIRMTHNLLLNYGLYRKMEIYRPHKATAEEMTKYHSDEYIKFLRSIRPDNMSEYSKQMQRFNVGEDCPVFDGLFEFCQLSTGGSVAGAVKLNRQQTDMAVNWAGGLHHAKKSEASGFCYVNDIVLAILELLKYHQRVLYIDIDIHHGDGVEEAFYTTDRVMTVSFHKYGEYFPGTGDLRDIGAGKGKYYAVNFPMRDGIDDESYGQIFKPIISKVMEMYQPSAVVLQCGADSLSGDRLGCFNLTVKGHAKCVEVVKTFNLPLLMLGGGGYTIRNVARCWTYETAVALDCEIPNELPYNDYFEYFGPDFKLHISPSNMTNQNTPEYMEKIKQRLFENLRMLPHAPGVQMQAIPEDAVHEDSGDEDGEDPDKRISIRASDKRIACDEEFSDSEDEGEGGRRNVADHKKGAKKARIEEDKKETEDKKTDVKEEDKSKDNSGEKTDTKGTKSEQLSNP
HDAC1, sequence (Q13547 whole entry): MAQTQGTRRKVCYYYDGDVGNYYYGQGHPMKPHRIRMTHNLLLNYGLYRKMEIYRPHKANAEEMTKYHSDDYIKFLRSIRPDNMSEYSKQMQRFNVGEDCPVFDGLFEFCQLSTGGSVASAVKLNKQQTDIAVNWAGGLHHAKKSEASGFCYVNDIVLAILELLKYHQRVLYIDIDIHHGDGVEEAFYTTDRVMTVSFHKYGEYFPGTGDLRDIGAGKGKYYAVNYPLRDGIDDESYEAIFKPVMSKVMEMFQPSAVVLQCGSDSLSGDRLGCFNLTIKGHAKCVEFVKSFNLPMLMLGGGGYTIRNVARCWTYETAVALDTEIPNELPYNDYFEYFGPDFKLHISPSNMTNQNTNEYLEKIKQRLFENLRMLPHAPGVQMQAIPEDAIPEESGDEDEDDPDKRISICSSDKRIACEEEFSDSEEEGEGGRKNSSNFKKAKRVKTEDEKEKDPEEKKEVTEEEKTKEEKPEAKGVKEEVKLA

Consider `Cc1ccc(/C=C/CC(=O)Nc2ccc(C(=O)Nc3ccc(F)cc3N)nc2)cn1` [GNTbm-02, 5-((E)-4-(6-methylpyridin-3-yl)but-3-enamido)-N-(2-amino-4-fluorophenyl)pyridine-2-carboxamide], for which the IC50 in data set [1] was over 10000 nM; in data set [3] it was 520 ± 20 nM; in data set [4], 670 ± 5 nM; in [5], 550 ± 60 nM. Further, the “HDAC7 Inhibition at 10 μM” value in data set [1] (10 μM) is reported as “not inhibited; also recorded: No Inhibition at 10 μM”. In [2], this molecule had a solubility at 90 min of 33.6 µg/mL (≈ 82.9 µM). For the same molecule, the “Inhibition of HDAC 3 enzyme activities (kinetics)” value in data set [6] is “stronger inhibition of HDAC 3 enzyme activities than Entinostat; also recorded: stronger inhibition of HDAC 3 enzyme activities than GNTbm-01”. In addition, the entries for the “Induction of apoptosis (sub-G1 phase)” value in [7], in data set [8] and in data set [9] were “significantly induced apoptosis”, “significantly induced apoptosis” and “significantly induced apoptosis in M10 cells”, respectively.
